Patent publication US11033604B2, “Reagents and methods for treating bacterial infection” (priority 2018, dated 2021)
Positions of bridges follow the written chain, without caps; N, C: chain ends. Non-standard residues stand in square brackets, D forms with d. No end group written: not given here.

Experiments:
[1] = test system: P. aeruginosa PAO1 pFap biofilms; experiment: In situ ThT assay of Fap amyloid in P. aeruginosa biofilms; assay type: cell-based; settings: LB medium, 37° C., 48 h
Source text: FIG. 15. Action of synthetic α-sheet peptides in the P. aeruginosa system. […] Error bars indicate standard deviation of the mean of at least three replicates. Significance values are p<0.05: *, p<0.01: **, p<0.001: ***.
The strain used in these experiments is a fap-overexpressing mutant of P. aeruginosa PAO1 WT called PAO1 pFap. The overexpression is generated by cloning the entire fap operon into a host expression vector, which is then transformed into PAO1 WT. […] For in situ assays, overnight cultures from a single colony of freshly transformed PAO1 pFap were used to inoculate 96 well plates in the presence of synthetic α-sheet peptides in LB medium. As a control, biofilms of the deletion strain PAO1 Δfap were grown under the same conditions. Plates were covered and incubated at 37° C. for 48 h. After incubation, planktonic cells and media were gently removed from the biofilms by pipetting. The biofilms were rinsed once with PBS prior to staining with 20 μM ThT. Stained biofilms were resuspended by pipetting and sonication, and the fluorescence of ThT was measured at 448/485 nm in a plate reader.

S. mutans UA159 biofilms = experiment: ThT assay for S. mutans biofilms (plate); assay type: cell-based, Streptococcus mutans; settings: 28 h, vs control
Source text: (§1) FIG. 16. Synthetic α-sheet peptides as a novel anti-biofilm agent for the dental pathogen, S. mutans. A) ThT fluorescence of S. mutans biofilms decreases upon addition of synthetic α-sheet peptides AP193, AP407, and AP90. […] D) synthetic α-sheet peptides added to S. mutans grown on hydroxyapatite ceramic particles led to significant decreases in ThT fluorescence.
The peptides AP90, AP407, AP193, P411, and P1 were screened for their ability to inhibit amyloid fibril formation using an optimized ThT assay for S. mutans biofilms. Briefly, S. mutans UA159 overnight cultures were diluted in BHI medium with 30 mM sucrose and 1% (v/v) EC Oxyrase(R) to ensure an oxygen-limited environment. Inocula were then mixed with inhibitors in water, or only water for blank conditions. Biofilms were cultivated at 37° C. in 96 well plates. After 28 h, planktonic cells and media were aspirated. Biofilms were rinsed once with PBS and then resuspended in a solution of 22 μM ThT in PBS. Stained biofilm suspensions were transferred to a new microtiter plate and their fluorescence was measured in a plate reader.
Several synthetic peptides caused significant suppression in the amyloid content of S. mutans biofilms, and the effect was specific to those with α-sheet structure. AP193 at 40 μM decreased ThT fluorescence by 33% (p=0.007). […] AP90 caused a 16% decrease in ThT fluorescence at 85 μM (p=0.017).

S. aureus MN8 biofilms = experiment: ThT fluorescence assay of amyloid formation in S. aureus MN8 biofilm cultures; assay type: cell-based, Staphylococcus aureus; settings: for Effect on amyloid fibril formation in S. aureus biofilms (ThT fluorescence, FIG. 1B): MN8 and SH1000 WT strains, particularly MN8; for Effect on amyloid fibril formation in S. aureus biofilms (ThT fluorescence, FIG. 1B) / Reduction of amyloid fibril formation (ThT fluorescence): 24 h, 37° C.; for Reduction of amyloid fibril formation (ThT fluorescence): S. aureus MN8 biofilm, peptide 80 μM unless otherwise noted, vs peptide-free control
Description: We developed a novel protocol to identify amyloid fibril formation during biofilm development in two S. aureus strains—SH1000 WT, a rsbU^+ laboratory strain^27, and MN8, a clinical strain isolated from the human urogenital tract (Table 1). After 24 hours of batch growth in microtiter plates, biofilms were washed and incubated with Thioflavin T (ThT), and the resulting fluorescence signals served as a proxy for the extent of PSM fibril formation in the EM (FIG. 1A). Next, we utilized this assay to test α-sheet amyloid inhibitor designs and control peptides (sequences provided in Table 2) in batch biofilm cultures. The first inhibitor used is AP90 (Alternating Peptide #90, referred to as α1 previously^25,26). […] The AP401 and AP407 designs display similar spectral features by CD, except that AP401 has a positive signal in the random coil region (FIG. 7). AP401 has the same sequence as AP90 but with reversed chirality in the strands and turn, thus the D-amino acids give rise to an approximate mirror image CD spectrum relative to AP90. AP407 is a variant of AP90 with a disulfide bond. An unstructured random coil peptide (RC) and a β-hairpin (β) are used as structural controls.
Designed and control peptides were added to the growth medium prior to inoculation, and biofilms were allowed to grow for 24 hours at 37° C. Planktonic cells were removed and the remaining biofilms were assayed for amyloid content using ThT. […] The disulfide-linked peptide design, AP407, reduced the amyloid fibril formation by 46% and 56% in the MN8 and SH1000 WT strains, respectively. In contrast, the random coil and β-sheet control peptides were ineffective.
Overnight cultures of S. aureus (see Table 1 for a list of strains used in this study) were spun down and re-suspended in fresh Luria-Bertani (LB) media to an optical density of 0.1 (600 nm). These cultures were then mixed with reconstituted peptide (or water, in the case of controls) and aliquoted in quadruplicate into wells of a clear 48-well plate (Corning, TC-treated polystyrene). The final concentration of peptide in each well was 80 μM, unless otherwise noted. Plates were covered and biofilms were grown at 37° C. for 24 hours with gentle rocking. At this time, medium and planktonic cells were removed from wells using a vacuum and the remaining adherent biofilms were rinsed once with PBS (BupH™, Thermo Scientific). Thioflavin T (ThT), an established fluorescent label for amyloid fibrils^40, was then added to each well at a concentration of 22 μM and biofilms were incubated statically for 4 hours at room temperature. The solution was then removed from the wells and PBS was added with vigorous pipetting to detach biofilms from the plate surface. Plates were shaken at high speed for 1 minute on a plate shaker to detach any remaining biofilm material and homogenize the samples. The detached biofilm suspensions were transferred to a 96-well black-walled plate (Corning, TC-treated polystyrene) and ThT fluorescence was read at 438/495 nm on a Perkin-Elmer Enspire™ plate reader. Fluorescence measurements were corrected by subtracting the background intensity of identical samples without ThT. For calculation of live:dead cell ratios, biofilm suspensions were prepared as described above and cells were stained with a 1:1 mixture of Syto9 and propidium iodide (LIVE/DEAD BacLight™ Bacterial Viability Kit, Thermo Scientific). After 15 minutes of incubation at room temperature, fluorescence ratios of the two dyes were determined using a Perkin-Elmer Enspire™ plate reader.

PSMα1 = test system: PSMα1
Source text: FIG. 6. […] Error bars represent the standard error of the mean.

[2] = test system: S. mutans biofilms on hydroxyapatite; experiment: ThT assay of S. mutans biofilms grown on ceramic-hydroxyapatite particles; assay type: cell-based, Streptococcus mutans; settings: 24 h
Description: as §1
To assess peptide inhibition of amyloid fibrils in S. mutans adhered to tooth-like surfaces, biofilms were grown on ceramic-hydroxyapatite particles. Hydroxyapatite is the primary mineral present in the structure of a tooth, so this assay is a more physiologically relevant model of S. mutans accumulation. ThT fluorescence of adhered biofilms was determined after 24 h of growth. Synthetic α-sheet peptides were added to medium and hydroxyapatite ceramic particles prior to cell growth. […] Both AP193 monomer and dimer caused significant decreases in ThT fluorescence (23% and 63%, respectively; FIG. 16D).

Substance | Amyloid formation in biofilms (ThT) [1] | Decrease in ThT fluorescence (S. mutans UA159 biofilms; 85 μM) | Effect on amyloid fibril formation in S. aureus biofilms (ThT fluorescence, FIG. 1B) (S. aureus MN8 biofilms) | Reduction of amyloid fibril formation (ThT fluorescence) (S. aureus MN8 biofilms) | Fibril formation with increasing peptide concentration (FIG. 1C) (S. aureus MN8 biofilms; S. aureus MN8 biofilms, increasing concentrations in culture medium) | Change of binding affinity as PSMα1 converted to β-sheet (PSMα1; PSMα1 at 146 h vs end of lag phase) | Decrease in ThT fluorescence ([2]; 100 μM) | Decrease in ThT fluorescence (S. mutans UA159 biofilms; 40 μM) | Binding of PSMα1 to peptide-functionalized beads (PSMα1; PSMα1 pre-incubated 0, 24, 48 h) | Decrease in ThT fluorescence ([2]; concentration not given)
RGEmNlCwMNEYSGWcMnLkMGR (RGE[dM]N[dL]C[dW]MNEYSGW[dC]M[dN]L[dK]MGR; disulfide 7-16 (inferred)) [AP407, variant of AP90 with a disulfide bond] | significantly inhibit amyloid formation | 42% | significant reduction in amyloid fibril formation | 46% |  |  |  |  |  | 
RGEmNlSwMNEYSGWtMnLkMGR (RGEMNLSWMNEYSGWTMNLKMGR; not fully specified (residues 4, 6, 8, 16, 18, 20); printed as RGEmNlSwMNEYSGWtMnLkMGR) [AP90] | significantly inhibit amyloid formation | 16% | significant reduction in amyloid fibril formation | 47% | decreased in a dose-dependent manner | dropped by two orders of magnitude | 20% |  |  | 
RGEmNyFwMNEYYGWtMnCkMGR (RGE[dM]N[dY]F[dW]MNEYYGW[dT]M[dN]C[dK]MGR) [AP193, hydrophobic AP90 derivative, variant to support different chemical coupling reactions] | significantly inhibit amyloid formation |  |  |  |  |  |  | 33% | preferentially bound α-sheet rich PSMα1 (48 h) over earlier time points | 23%
